Reference: ChEMBL document CHEMBL1201862, “PubChem BioAssay data set” (2004)
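A five-concentration, 48-hour dose response in 96-well plates underlies each endpoint, interpolated linearly between surrounding concentrations. The concentration for 50% growth inhibition is given as GI50.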 The source made the active and inactive calls. Cut-off read from the data, not from the text of the source: active = GI50 up to about 1.1 µM and inactive = higher.

Assays:
Assay in all cases: DTP human tumour cell line panel, 48 h
CAKI-1 = system: CAKI-1
NCI-H23 = system: NCI-H23
786-0 = system: 786-0
UACC-62 = system: UACC-62
HT-29 = system: HT-29
KM12 = system: KM12
SN12C = system: SN12C
UACC-257 = system: UACC-257
K562 = system: K562
SNB-19 = system: SNB-19
A498 = system: A498
LOX IMVI = system: LOX IMVI
SF-295 = system: SF-295
SK-OV-3 = system: SK-OV-3
SK-MEL-5 = system: SK-MEL-5
NCI-H522 = system: NCI-H522
RPMI-8226 = system: RPMI-8226
SNB-75 = system: SNB-75
SNB-78 = system: SNB-78
Hs-578T = system: Hs-578T

Measured: GI50

O=C1c2ccccc2C(=O)c2c(NCCNCCO)ccc(O)c21
inactive: CAKI-1 2.64 µM | NCI-H23 2.59 µM | 786-0 3.66 µM | UACC-62 3.35 µM | HT-29 2.58 µM | KM12 2.52 µM | SN12C 1.45 µM | UACC-257 3.29 µM | K562 4.86 µM | SNB-19 2.89 µM | A498 5.53 µM | LOX IMVI 1.51 µM | SF-295 4.35 µM | SK-OV-3 2.55 µM | SK-MEL-5 3.18 µM | NCI-H522 2.59 µM | RPMI-8226 3.22 µM | SNB-75 3.63 µM | SNB-78 4.61 µM

CN(N=O)C(=O)N[C@H]1C(O)O[C@H](CO)[C@@H](O)[C@@H]1O (stereo partly specified)
inactive: CAKI-1 429 µM | NCI-H23 614 µM | 786-0 309 µM | UACC-62 550 µM | HT-29 618 µM | KM12 625 µM | SN12C 581 µM | UACC-257 600 µM | K562 498 µM | SNB-19 565 µM | A498 593 µM | SF-295 589 µM | SK-OV-3 571 µM | SK-MEL-5 413 µM | Hs-578T > 750 µM | NCI-H522 578 µM | RPMI-8226 565 µM | SNB-75 484 µM | SNB-78 545 µM

Cc1cc(C)c(-n2c(-c3ccc(Br)cc3)cs/c2=N\N=C2C=C(C(C)(C)C)C(=O)C(C(C)(C)C)=C2)c(C)c1
inactive: CAKI-1 > 100 µM | NCI-H23 > 100 µM | 786-0 > 100 µM | UACC-62 > 81.1 µM | HT-29 > 100 µM | KM12 > 100 µM | SN12C > 100 µM | UACC-257 > 100 µM | K562 > 100 µM | SNB-19 76.2 µM | A498 31.3 µM | LOX IMVI > 100 µM | SF-295 > 41.5 µM | SK-OV-3 > 72.9 µM | SK-MEL-5 > 100 µM | Hs-578T 15.3 µM | NCI-H522 > 100 µM | RPMI-8226 > 100 µM | SNB-75 17.5 µM | SNB-78 38.7 µM

O=C1C=CC2(C=C1)C[C@H](NC(=O)OCc1ccccc1)C(=O)O2
inactive: CAKI-1 18 µM | NCI-H23 16.1 µM | 786-0 14.3 µM | UACC-62 17.3 µM | HT-29 13.8 µM | KM12 18.9 µM | SN12C 18.2 µM | UACC-257 16.9 µM | K562 3.08 µM | SNB-19 99.5 µM | A498 > 61.7 µM | LOX IMVI 9.93 µM | SF-295 26.1 µM | SK-OV-3 > 67.1 µM | SK-MEL-5 21.9 µM | Hs-578T 40.6 µM | NCI-H522 3.3 µM | RPMI-8226 3.6 µM | SNB-75 25.1 µM | SNB-78 24.5 µM

CCOC(=O)NC(=O)c1cn(CCCOC(=O)CCCCCCCCCCC(=O)OCCCn2cc(C(=O)NC(=O)OCC)c(=O)n(C)c2=O)c(=O)n(C)c1=O
inactive: CAKI-1 > 100 µM | NCI-H23 > 100 µM | 786-0 > 100 µM | UACC-62 > 100 µM | HT-29 > 100 µM | KM12 > 100 µM | SN12C > 100 µM | UACC-257 > 100 µM | K562 > 100 µM | SNB-19 > 100 µM | A498 > 100 µM | LOX IMVI > 100 µM | SF-295 > 100 µM | SK-OV-3 > 100 µM | SK-MEL-5 > 100 µM | NCI-H522 > 100 µM | RPMI-8226 > 100 µM | SNB-75 47.9 µM | SNB-78 > 100 µM

Cc1ccc(C)c(NC(=O)CC/C(=N\NC(=O)C(=O)NN)C(C)C(=O)c2ccc(O)cc2)c1 (stereo unspecified)
inactive: CAKI-1 > 100 µM | NCI-H23 > 100 µM | 786-0 > 100 µM | UACC-62 > 100 µM | HT-29 > 100 µM | KM12 > 100 µM | SN12C > 100 µM | UACC-257 > 100 µM | K562 > 100 µM | SNB-19 > 100 µM | A498 > 100 µM | LOX IMVI > 100 µM | SF-295 > 100 µM | SK-OV-3 > 100 µM | SK-MEL-5 > 100 µM | NCI-H522 > 100 µM | RPMI-8226 > 100 µM | SNB-75 > 100 µM | SNB-78 > 100 µM
